Measurements taken from PubChem BioAssay (NCI).
“And” between values parts separate entries of the source, which are not always exact repeats. Equal values may be shown once.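 Exposure lasted 48 hours, with cells grown in 96-well plates and compounds tested at five concentrations. GI50 marks 50% less growth. TGI: concentration producing complete growth inhibition.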

System: MDA-MB-468 breast
Experiment: inhibition of tumour cell growth, NCI panel, 48 h

Compound	GI50	TGI
CCc1cccc2c3c(sc12)C(c1ccc(Cl)cc1)C(C#N)=C(/N=C/c1ccc(Cl)cc1)O3 (stereo unspecified)	565 nM	2460 nM
CN1CCc2c(Sc3ccc(C(=O)NO)cc3)c3ccccc3n2C1	1120 nM	2920 nM
c1ccc2c3ccn4cc5c(cc4c-3nc2c1)CCCC5	1390 nM	3600 nM
Nc1nc(Nc2ccccc2)c2ncn(Cc3cc4c(cc3Br)OCO4)c2n1	< 10 nM	18200 nM
O=C(CN(C1CCCCC1)C1CCCCC1)Nc1ccc(S(=O)(=O)c2ccc(NC(=O)CN(C3CCCCC3)C3CCCCC3)cc2)cc1	1040 nM	2930 nM
CCN(CC)CC(C)(C)C(=O)/C=C/c1ccc(Cl)c(Cl)c1	1690 nM	3420 nM
O=C(CCCN1CC=C(n2c(=O)[nH]c3ccccc32)CC1)c1ccc(F)cc1	18800 nM	59500 nM
CC(=O)Oc1ccccc1C(=O)N=C1[Se]CCCN1C(=O)c1ccccc1OC(C)=O	3380 nM	10900 nM
Cc1n(Cc2ccc3ccccc3c2)cc[n+]1Cc1ccc2ccccc2c1	252 nM	819 nM
O=C1/C(=C\c2cccn2Cc2ccccc2)c2ccccc2N1c1c(Cl)cccc1Cl	118 nM	463 nM
CN(C)c1ccc2nc3ccc(=O)cc-3sc2c1	1490 nM	6990 nM
CCN1C(=O)N(CC)C2C1NC(=S)N2/N=C/C=C/c1cccs1 (stereo unspecified)	198 nM	
COc1cc2cn3c4ccc(O)cc4[nH]c(=O)c3c2cc1OC	20 nM	56.8 nM
Cc1[nH]n(-c2cccc(Cl)c2)c(=O)c1/C=C1\C=Nc2ccc(Br)cc21	3970 nM	29200 nM
O=c1[nH]c2cc(Cl)ccc2n1C1CCN(CCCC(c2ccc(F)cc2)c2ccc(F)cc2)CC1	1650 nM	3140 nM
O=C(N/N=C\c1cc(Br)ccc1O)c1ccncc1	1070 nM	5510 nM
O=C(Nc1cccc(Cl)c1)c1cc2ccccc2cc1O	2200 nM and 1910 nM	10400 nM and 6670 nM
CC(=O)Oc1ccccc1C(=O)N=C1[Se]CCN1C(=O)c1ccccc1OC(C)=O	740 nM	2670 nM
Cc1ccc(N(CSc2ccc(Cl)cc2)CSc2ccc(Cl)cc2)cc1	1910 nM	6230 nM
N#CC1(C2SCCS2=O)C2=C(C(=O)c3ccccc3C2=O)N2CCCC21 (stereo unspecified)	467 nM	1900 nM
COC(=O)[C@@H](NC(=O)[C@@H](OC)[C@@H]1Cc2cc3cc(OC4CC(OC5CC(O)C(O)C(C)O5)C(O)C(C)O4)c(C)c(O)c3c(O)c2C(=O)[C@H]1OC1CC(OC2CC(OC3CC(C)(O)C(O)C(C)O3)C(O)C(C)O2)C(O)C(C)O1)C(C)C (stereo partly specified)	131 nM	2600 nM
CCCCCc1c(C)[nH]c(/C=C2\N=C(c3ccc[nH]3)C=C2CC)c1C	21.5 nM	90.4 nM
Cc1sc2nc(NCCc3c[nH]c4ccc(Cl)cc34)[nH]c(=O)c2c1C	2130 nM	4680 nM
Cc1c[n+](Cc2ccc3ccccc3c2)cn1Cc1ccc2ccccc2c1	362 nM	1350 nM
Cc1ccc2c(n1)C(=O)C(Cl)=C(Nc1ccc(C(F)(F)F)cc1)C2=O	1890 nM	4000 nM
Cc1c(C2Nc3ccccc3C2C)[nH]c2ccccc12 (stereo unspecified)	10400 nM	27800 nM
